According to US11873298B2, “Compounds and uses thereof” (JANSSEN PHARMACEUTICA NV, priority 2017, dated 2024):
pIC50: −log10 of the molar value.

Legend:
SCD1 = target: T1, SCD1 (Homo sapiens, UniProt O00767); test: Growth inhibition of humanized yeast strain expressing SCD1 as sole desaturase; format: cell-based; details: humanized yeast strain, 40 h
T1 construct: host or cells: S. cerevisiae ole1Δ strain (W303 pdr1Δ pdr3Δ background), plasmid pRS316 with TDH3 promoter and CYC1 terminator
T1 sequence (O00767 1-359): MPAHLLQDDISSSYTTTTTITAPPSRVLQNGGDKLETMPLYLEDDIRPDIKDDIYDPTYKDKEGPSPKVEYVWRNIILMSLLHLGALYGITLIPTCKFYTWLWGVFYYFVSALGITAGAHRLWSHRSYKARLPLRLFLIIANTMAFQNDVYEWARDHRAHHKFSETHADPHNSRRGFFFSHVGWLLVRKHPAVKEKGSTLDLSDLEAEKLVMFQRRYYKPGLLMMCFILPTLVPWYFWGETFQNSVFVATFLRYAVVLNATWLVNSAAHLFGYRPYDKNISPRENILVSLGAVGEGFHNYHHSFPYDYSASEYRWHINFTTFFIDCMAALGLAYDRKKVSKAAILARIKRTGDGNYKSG
Procedure, shortened: (§1)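 Measured by optical density at 600 nm, growth of desaturase-dependent yeast (OLE1 deleted; human SCD1, human SCD5 or yeast Ole1 supplied from plasmid) was scored after 24 h (Ole1) or 40 h (SCD1, SCD5) at 30° C. in galactose media lacking uracil with DMSO-delivered compound.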

SCD5 = target: T2, SCD5 (Homo sapiens, UniProt Q86SK9); test: Growth inhibition of humanized yeast strain expressing SCD5 as sole desaturase; format: cell-based; details: humanized yeast strain, 40 h
T2 construct: host or cells: S. cerevisiae ole1Δ strain (W303 pdr1Δ pdr3Δ background), plasmid pRS316 with TDH3 promoter and CYC1 terminator
T2 sequence (Q86SK9 1-330): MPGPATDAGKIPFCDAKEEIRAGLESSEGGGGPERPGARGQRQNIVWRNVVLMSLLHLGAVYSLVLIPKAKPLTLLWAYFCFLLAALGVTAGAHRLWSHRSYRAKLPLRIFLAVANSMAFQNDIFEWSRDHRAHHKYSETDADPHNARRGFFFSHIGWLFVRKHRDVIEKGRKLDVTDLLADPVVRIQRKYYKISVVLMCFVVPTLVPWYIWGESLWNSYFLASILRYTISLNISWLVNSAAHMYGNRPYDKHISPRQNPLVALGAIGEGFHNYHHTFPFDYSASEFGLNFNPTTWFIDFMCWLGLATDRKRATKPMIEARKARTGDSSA
Procedure, shortened: as §1

Row | Compound | pIC50 (SCD1) | pIC50 (SCD5)
1 | CC(C)n1cc2c(n1)CN(c1noc(C3CCN(C(=O)OC(C)(C)C)CC3)n1)CC2 [Compound 826] | < 4.35 | 5.70
2 | CC(C)n1ncc2c1CN(c1noc(C3CCN(C(=O)OC(C)(C)C)CC3)n1)CC2 [Compound 827] | < 4.35 | < 4.35
3 | CC(C)n1ncc2ccc(-c3nc(N4CCn5c(Cl)cnc5C4)no3)cc21 [Compound 828] | < 4.35 | 7.17
4 | CC(C)(C)OC(=O)N1CCN(c2nc(-c3cccc(C4CCOC4)c3)no2)CC1 (stereo not drawn) [Compound 829] | < 4.35 | 5.66
5 | COC1(C2CCN(c3nc(-c4ccc5cnn(C(C)C)c5c4)no3)CC2)COC1 [Compound 830] | < 4.35 | < 4.35
6 | CC(C)(C)OC(=O)N1CCN(c2noc(-c3ccc4c(c3)C3(CCC3)OC4)n2)CC1 [Compound 831] | < 4.35 | 5.92
7 | CC(C)n1ncc2ccc(-c3noc(C4(O)CCN(C(=O)OC(C)(C)C)CC4)n3)cc21 [Compound 832] | < 4.35 | 4.93
8 | CC(C)(C)OC(=O)N1CCC(c2nc(-c3ccn4cnc(C#N)c4c3)no2)CC1 [Compound 833] | < 4.35 | < 4.35
9 | COC(=O)N1CCC(c2noc(-c3ccc4cnn(C(CO)CO)c4c3)n2)CC1 [Compound 834] | < 4.35 | < 4.35
10 | CC(C)n1ncc2ccc(-c3cc(C4CCN(C(=O)OC(C)(C)C)CC4)on3)nc21 [Compound 835] | < 4.35 | < 4.35
11 | COC1(c2nc(-c3ccc4cnn(C(C)C)c4c3)no2)CCN(C(=O)OC(C)(C)C)CC1 [Compound 836] | < 4.35 | 5.84
12 | COC(=O)N1CCN(c2nc(-c3cccc(C4CCOC4)c3)no2)CC1 (stereo not drawn) [Compound 837] | < 4.35 | 4.90
13 | O=C(C1CCC1)N1CCN(c2noc(-c3ccc4cnn(C5COC5)c4c3)n2)CC1 [Compound 838] | < 4.35 | 7.68
14 | O=C(CC1CC1)N1CCN(c2noc(-c3ccc4cnn(C5COC5)c4c3)n2)CC1 [Compound 839] | < 4.35 | 7.46
15 | COCC(COC)n1ncc2ccc(-c3nc(C4CCN(C(=O)OC)CC4)no3)cc21 [Compound 840] | < 4.35 | 4.68
16 | CCC(=O)N1CCN(c2noc(-c3ccc4cnn(C5COC5)c4c3)n2)CC1 [Compound 841] | < 4.35 | 6.68
17 | CC1(CC(=O)N2CCN(c3noc(-c4ccc5cnn(C6COC6)c5c4)n3)CC2)CC1 [Compound 842] | < 4.35 | 8.00
18 | O=C(N1CCN(c2noc(-c3ccc4cnn(C5COC5)c4c3)n2)CC1)C12CC(C1)C2 [Compound 843] | < 4.35 | 7.48
19 | O=C(C1CC1)N1CCN(c2noc(-c3ccc4cnn(C5COC5)c4c3)n2)CC1 [Compound 844] | < 4.35 | 7.82

Row | Compound | pIC50 (SCD1) | pIC50 (SCD5)
20 | CC(C)n1ncc2ccc(-c3nc(N4CCN(C(=O)c5ncccc5F)CC4)no3)cc21 [Compound 845] | < 4.35 | 6.20
21 | CC1(OC(=O)N2CCC(c3nc(-c4cccc(C5CCOC5)c4)no3)CC2)CC1 (stereo not drawn) [Compound 846] | < 4.35 | 7.40
22 | CC(C)(C)OC(=O)N1CCC(c2nc(-c3ccc4cnn([C@H]5C[C@H](OC(=O)c6ccc([N+](=O)[O-])cc6)C5)c4c3)no2)CC1 [Compound 847] | < 4.35 | < 4.35
23 | CC1(C)CC1C(=O)N1CCC(c2noc(-c3ccc4cnn(C5COC5)c4c3)n2)CC1 (stereo not drawn) [Compound 848] | < 4.35 | 8.00
24 | CC(C)n1ncc2ccc(-c3nnc(C4CCN(C(=O)OC(C)(C)C)CC4)o3)cc21 [Compound 849] | < 4.35 | 6.19
25 | CC(C)(C)OC(=O)N1CCCC(c2noc(-c3ccc4cnn(C5COC5)c4c3)n2)CC1 (stereo not drawn) [Compound 850] | < 4.35 | 8.00
26 | CC(C)(C)OC(=O)N1CCC(c2nnc(-c3ccc4cnn(C5COC5)c4c3)o2)CC1 [Compound 851] | < 4.35 | 7.19
27 | COC(=O)N1CCC(c2nnc(-c3ccc4cnn(C(C)C)c4c3)o2)CC1 [Compound 852] | < 4.35 | 5.27
28 | CC(C)n1ncc2ccc(-c3nc(C4CCN(C(=O)CC5CC5)CC4)no3)cc21 [Compound 853] | < 4.35 | 8.00
29 | CC(C)(C)OC(=O)N1CCCN(c2noc(-c3ccc4cnn(C5COC5)c4c3)n2)CC1 [Compound 854] | 4.84 | 8.00
30 | C=C(C)c1ncn2ccc(-c3noc(C4CCN(C(=O)OC(C)(C)C)CC4)n3)cc12 [Compound 855] | < 4.35 | < 4.35
31 | COC(=O)N1CCC(c2nc(-c3ccnc(C(O)C(C)C)c3)no2)CC1 (stereo not drawn) [Compound 856] | < 4.35 | < 4.35
32 | COC(=O)N1CCCN(c2noc(-c3ccc4cnn(C5COC5)c4c3)n2)CC1 [Compound 857] | < 4.35 | 4.57
33 | CC(C)(C)OC(=O)N1CCC(c2nc(-c3ccn4cnc(I)c4c3)no2)CC1 [Compound 858] | < 4.35 | 6.58
34 | CO[C@H]1C[C@H](n2ncc3ccc(-c4noc(C5CCN(C(=O)OC(C)(C)C)CC5)n4)cc32)C1 [Compound 859] | < 4.35 | < 5.40
35 | CC(C)(C)OC(=O)N1CCC(c2noc(-c3cc(F)c4cnn(C5COC5)c4c3)n2)CC1 [Compound 860] | < 4.35 | 6.32
36 | CC(=O)N1CC(n2ncc3ccc(-c4nc(C5CCN(C(=O)OC(C)(C)C)CC5)no4)cc32)C1 [Compound 861] | 4.83 | 8.00
37 | c1cc2cnn(C3COC3)c2cc1-c1nc(C2CCCNCC2)no1 (stereo not drawn) [Compound 863] | < 4.35 | < 4.35
38 | O=C(C1CC2(CC2)C1)N1CCN(c2noc(-c3ccc4cnn(C5COC5)c4c3)n2)CC1 [Compound 864] | < 4.35 | < 4.35

Row | Compound | pIC50 (SCD1) | pIC50 (SCD5)
39 | CC(C)(C)OC(=O)N1CCC(c2nc(-c3ccc4cnc(Br)n4c3)no2)CC1 [Compound 865] | < 4.35 | 8.00
40 | CC(C)c1ncn2ccc(-c3noc(C4CCN(C(=O)OC(C)(C)C)CC4)n3)cc12 [Compound 866] | < 4.35 | 5.34
41 | CO[C@H]1C[C@@H](n2ncc3ccc(-c4noc(C5CCN(C(=O)OC(C)(C)C)CC5)n4)cc32)C1 [Compound 867] | < 4.35 | 5.72
42 | CC(C)n1cc2c(n1)CN(c1noc(C3CCN(C(=O)OC(C)(C)C)CC3)n1)CC2 [Compound 868] | < 4.35 | 6.01
43 | CC(C)n1ncc2ccc(-c3noc(N4CCN(C(=O)CC5CC5)CC4)n3)cc21 [Compound 869] | < 4.35 | 5.79
44 | CC(C)n1ncc2ccc(-c3noc(C4CCN(C(=O)CC5CC5(F)F)CC4)n3)cc21 (stereo not drawn) [Compound 870] | < 4.35 | 5.37
45 | COC(=O)N1CCC(c2nnc(-c3ccc4cnn(C5COC5)c4c3)o2)CC1 [Compound 871] | < 4.35 | 5.02
46 | CC(C)(C)OC(=O)N1CCC(c2nc(-c3ccc4c(Br)ncn4c3)no2)CC1 [Compound 872] | < 4.35 | 5.09
47 | COC(=O)N1CCCC(c2noc(-c3ccc4cnn(C5COC5)c4c3)n2)CC1 (stereo not drawn) [Compound 873] | < 4.35 | 4.38
48 | CC(C)n1ncc2ccc(-c3nc(N4CCN(C(=O)CC5CC5)CC4)no3)cc21 [Compound 874] | < 4.35 | 7.30
49 | COC(=O)N1CCC(c2noc(-c3cc(F)c4cnn(C5COC5)c4c3)n2)CC1 [Compound 875] | < 4.35 | 7.70
50 | COC(=O)N1CCC(c2noc(-c3ccc4cnn([C@H]5CCOC5)c4c3)n2)CC1 [Compound 878] | < 4.35 | 8.30
51 | COC(=O)N1CCC(c2noc(-c3ccc4cnn([C@H]5CCOC5)c4c3)n2)CC1 [Compound 879] | 5.26 | 8.00
52 | O=C(C1CCC1)N1CCC(c2noc(-c3ccc4cnn(C5COC5)c4c3)n2)CC1 [Compound 880] | < 4.35 | 8.00
53 | O=C(c1ncccc1F)N1CCC(c2noc(-c3ccc4cnn(C5COC5)c4c3)n2)CC1 [Compound 881] | < 4.35 | 8.00
54 | CC(C)(C)OC(=O)N1CCC(c2noc(-c3cc4c(Cl)nccn4c3)n2)CC1 [Compound 882] | 5.18 | 5.72
55 | CC(C)(C)OC(=O)N1CCC(F)(c2noc(-c3ccc4cnn(C5COC5)c4c3)n2)CC1 [Compound 883] | < 4.35 | 6.00
56 | COC1(C(=O)N2CCN(c3noc(-c4ccc5cnn(C6COC6)c5c4)n3)CC2)CC1 [Compound 884] | < 4.35 | 8.00
57 | CC(C)n1ncc2cnc(-c3cc(C4CCN(C(=O)OC(C)(C)C)CC4)on3)cc21 [Compound 885] | 4.60 | 8.00
